Laboratory results published in ChEMBL document CHEMBL1142397, “Antineoplastic agents. 536. New sources of naturally occurring cancer cell growth inhibitors from marine organisms, terrestrial plants, and microorganisms(1a,)” (J Nat Prod, 2008).
Converted amounts (≈) assume the structure as drawn. Starred links: 1 amine or outer side, 2 acyl side, 3 side chain; linkers in the order of their positions; H or OH if unused. Positions of bridges follow the written chain, without caps; N, C: chain ends. Non-standard residues stand in square brackets, D forms with d. Residues, ends and D or L forms follow the SMILES beside them. Chains are numbered I, II in the order given. Actinocin(1to9) = Cc1c2oc3c(C)ccc(C(=O)[*:2])c3nc-2c(C(=O)[*:1])c(N)c1=O; X1 = CCC(N[*:1])C(C)C(=O)O[C@H](C(=O)[*:2])[C@@H](C)CC; X2 = C[C@H](N[*:1])C(=O)C(C)(C)C(=O)[*:2]; NMeY = CN[C@@H](Cc1ccc(O)cc1)C(=O)O; NMeI = CC[C@H](C)[C@H](NC)C(=O)O; NMeV = CN[C@H](C(=O)O)C(C)C; Sar = CNCC(=O)O

Key:
[1] = system: P388; experiment: Cytotoxicity against mouse P388 cells assessed as concentration required for 50% inhibition; type: functional
[2] = system: OVCAR-3; experiment: Cytotoxicity against human OVCAR-3 cells assessed as concentration required for 50% inhibition; type: functional
[3] = system: NCI-H460; experiment: Cytotoxicity against human NCIH460 cells assessed as concentration required for 50% inhibition; type: functional
[4] = system: KM-20L2; experiment: Cytotoxicity against human KM20L2 cells assessed as concentration required for 50% inhibition; type: functional
[5] = system: BXPC-3; experiment: Cytotoxicity against human BXPC3 cells assessed as concentration required for 50% inhibition; type: functional
[6] = system: SF-295; experiment: Cytotoxicity against human SF295 cells assessed as concentration required for 50% inhibition; type: functional
[7] = system: DU-145; experiment: Cytotoxicity against human DU145 cells assessed as concentration required for 50% inhibition; type: functional
[8] = system: HL-60; experiment: Cytotoxicity against human HL60 cells; type: functional, cell-based
[9] = system: HeLa; experiment: Cytotoxicity against human HeLa cells; type: functional, cell-based
[10] = system: A549; experiment: Cytotoxicity against human A549 cells; type: functional, cell-based
[11] = system: MCF7; experiment: Cytotoxicity against human MCF7 cells assessed as concentration required for 50% inhibition; type: functional
[12] = system: SF-268; experiment: Cytotoxicity against human SF268 cells assessed as concentration required for 50% inhibition; type: functional
[13] = system: A498; experiment: Cytotoxicity against human A498 cells assessed as concentration required for 50% inhibition; type: functional
[14] = system: SK-MEL-5; experiment: Cytotoxicity against human SK-MEL-5 cells assessed as concentration required for 50% inhibition; type: functional
[15] = system: Mycobacterium tuberculosis; experiment: Antibacterial activity against Mycobacterium tuberculosis; type: functional
[16] = system: Vero; experiment: Cytotoxicity against african green monkey Vero cells; type: functional, cell-based; conditions: Chlorocebus sabaeus

COc1c(C)c2c(c(O)c1C/C=C(C)/C=C/C(=O)O)C(=O)OC2
Activity [1]: 0.11 µg/mL

COc1cc([C@@H]2c3cc4c(c(O[C@@H]5O[C@H](CO)[C@@H](O)[C@H](O)[C@H]5O)c3C[C@H]3COC(=O)[C@@H]32)OCO4)cc(OC)c1OC
Activity [1]: 0.21 µg/mL
Activity [2]: 0.85 µg/mL
Activity [3]: 0.28 µg/mL
Activity [4]: >1 µg/mL
Activity [5]: >1 µg/mL
Activity [6]: 0.27 µg/mL
Activity [7]: >1 µg/mL

CS[C@@H]1[C@H]2C(=O)N(C)[C@@H](C(C)C)C(=O)OC[C@@H](NC(=O)c3cnc4ccccc4n3)C(=O)N[C@@H](C)C(=O)N(C)[C@@H](C[S+]1[O-])C(=O)N(C)[C@@H](C(C)C)C(=O)OC[C@@H](NC(=O)c1cnc3ccccc3n1)C(=O)N[C@@H](C)C(=O)N2C (stereo partly specified)
IC50 [8]: 0.2 µg/mL (≈ 0.179 µM)
IC50 [9]: 0.2 µg/mL (≈ 0.179 µM)
IC50 [10]: 0.2 µg/mL (≈ 0.179 µM)

CC[C@H](C)[C@@H]1NC(=O)[C@H](CC(C)C)NC(=O)[C@@H]2CCCN2C(=O)[C@H](C(C)C)NC(=O)[C@H](Cc2ccc(O)cc2)NC(=O)[C@@H]2CCCN2C(=O)[C@@H]2CCCN2C(=O)[C@H](CC(C)C)NC1=O [AXINASTATIN 5] (cyclo(ILPPYVPL))
Activity [1]: 1.9 µg/mL
Activity [3]: 0.82 µg/mL
Activity [4]: 0.28 µg/mL
Activity [5]: 0.68 µg/mL
Activity [11]: 1.4 µg/mL
Activity [12]: 1.8 µg/mL
Activity [7]: 0.87 µg/mL

CCCCCCCCCCCCCC(=O)O[C@H]1CC[C@H](NC(=O)[C@H](OC)[C@H](O)[C@@H](O)[C@H](O)/C=C/C(C)C)C(=O)NC1 [BENGAMIDE A]
Activity [1]: 0.12 µg/mL
Activity [2]: 0.01 µg/mL
Activity [3]: 0.00054 µg/mL
Activity [4]: 0.0049 µg/mL
Activity [5]: 0.027 µg/mL
Activity [6]: 0.001 µg/mL
Activity [7]: 0.0056 µg/mL

CCCCCCCCCCCCCC(=O)O[C@@H](c1cnco1)c1nc([C@@H](O)C[C@@H](O)[C@@H](O)[C@@H](C)O)co1 [BENGAZOLE A]
Activity [1]: 0.14 µg/mL
Activity [2]: 0.28 µg/mL
Activity [3]: 0.21 µg/mL
Activity [4]: 0.0031 µg/mL
Activity [5]: 0.14 µg/mL
Activity [6]: 0.19 µg/mL
Activity [7]: 0.15 µg/mL

CC(C)CCCCCCCCCCCC(=O)O[C@@H](c1cnco1)c1nc([C@@H](O)C[C@@H](O)[C@@H](O)[C@@H](C)O)co1 [BENGAZOLE B]
Activity [1]: 0.053 µg/mL
Activity [2]: 0.37 µg/mL
Activity [3]: 0.2 µg/mL
Activity [4]: 0.33 µg/mL
Activity [5]: 0.18 µg/mL
Activity [6]: 0.19 µg/mL
Activity [7]: 0.15 µg/mL

CCCCCCCCCCCCCCC(=O)O[C@@H](c1cnco1)c1nc([C@@H](O)C[C@@H](O)[C@@H](O)[C@@H](C)O)co1 [BENGAZOLE E]
Activity [1]: 0.074 µg/mL
Activity [2]: 0.16 µg/mL
Activity [3]: 0.14 µg/mL
Activity [4]: 0.18 µg/mL
Activity [5]: 0.081 µg/mL
Activity [6]: 0.13 µg/mL
Activity [7]: 0.11 µg/mL

COc1cc([C@@H]2c3cc4c(c(O)c3C[C@H]3COC(=O)[C@@H]32)OCO4)cc(OC)c1OC [BETA-PELTATIN A]
Activity [1]: 0.0031 µg/mL
Activity [2]: 0.00055 µg/mL
Activity [3]: 0.00077 µg/mL
Activity [4]: 0.0076 µg/mL
Activity [5]: 0.0012 µg/mL
Activity [6]: 0.0004 µg/mL
Activity [7]: 0.0021 µg/mL

C[C@H]1CCC/C=C/[C@@H]2C[C@H](O)C[C@H]2[C@H](O)/C=C/C(=O)O1 [BREFELDIN A]
Activity [1]: 0.23 µg/mL
Activity [2]: 0.041 µg/mL
Activity [3]: 0.28 µg/mL
Activity [4]: 0.022 µg/mL
Activity [5]: 0.07 µg/mL
Activity [11]: 0.047 µg/mL
Activity [12]: 0.21 µg/mL
Activity [6]: 0.38 µg/mL
Activity [7]: 0.13 µg/mL

CC[C@H]1CN2CCc3cc(OC)c(OC)cc3[C@@H]2C[C@@H]1C[C@H]1NCCc2cc(O)c(OC)cc21 [CEPHAELINE]
Activity [1]: 0.0027 µg/mL
Activity [2]: 0.032 µg/mL
Activity [3]: 0.022 µg/mL
Activity [4]: 0.022 µg/mL
Activity [5]: 0.024 µg/mL
Activity [6]: 0.018 µg/mL
Activity [7]: 0.0098 µg/mL

Cc1c2oc3c(C)ccc(C(=O)N[C@@H]4C(=O)N[C@H](C(C)C)C(=O)N5CCC[C@H]5C(=O)N(C)CC(=O)N(C)[C@@H](C(C)C)C(=O)O[C@@H]4C)c3nc-2c(C(=O)N[C@@H]2C(=O)N[C@H](C(C)C)C(=O)N3CCC[C@H]3C(=O)N(C)CC(=O)N(C)[C@@H](C(C)C)C(=O)O[C@@H]2C)c(N)c1=O [DACTINOMYCIN] (I: T[dV]P[Sar][NMeV] / II: T[dV]P[Sar][NMeV]; ester I:1-I:C, II:1-II:C; linker I:N-II:N via Actinocin(1to9))
Activity [1]: <0.001 µg/mL

O=c1c(-c2ccc(O)cc2)coc2cc(O)ccc12 [DAIDZEIN]
Activity [3]: >10 µg/mL
Activity [4]: 8.8 µg/mL
Activity [5]: 6.2 µg/mL
Activity [11]: 5.1 µg/mL
Activity [12]: 4.4 µg/mL
Activity [7]: 7.3 µg/mL

NC1=N/C(=C2/CCNC(=O)c3[nH]ccc32)C(=O)N1 [DEBROMOHYMENIALDISINE]
Activity [1]: 5 µg/mL

COc1cc([C@@H]2c3cc4c(cc3C[C@H]3COC(=O)[C@@H]32)OCO4)cc(OC)c1OC [DESOXYPODOPHYLLOTOXIN]
Activity [1]: 0.029 µg/mL
Activity [2]: 0.0027 µg/mL
Activity [3]: 0.0018 µg/mL
Activity [4]: 0.0014 µg/mL
Activity [5]: 0.00044 µg/mL
Activity [6]: 0.00056 µg/mL
Activity [7]: 0.0017 µg/mL

CS[C@H]1SC[C@H]2C(=O)N(C)[C@@H](C(C)C)C(=O)OC[C@@H](NC(=O)c3cnc4ccccc4n3)C(=O)N[C@@H](C)C(=O)N(C)[C@@H]1C(=O)N(C)[C@@H](C(C)C)C(=O)OC[C@@H](NC(=O)c1cnc3ccccc3n1)C(=O)N[C@@H](C)C(=O)N2C [ECHINOMYCIN]
Activity [1]: 0.00147 µg/mL

O=c1c(-c2ccc(O)cc2)coc2cc(O)cc(O)c12 [GENISTEIN]
Activity [3]: 1.5 µg/mL
Activity [4]: 3.7 µg/mL
Activity [5]: 2.5 µg/mL
Activity [11]: 2.5 µg/mL
Activity [12]: 1.7 µg/mL
Activity [7]: 1.9 µg/mL

NC1=NC(=O)/C(=C2\CCNC(=O)c3[nH]c(Br)cc32)N1 [HYMENIALDISINE]
Activity [1]: 2.4 µg/mL

COc1cc([C@H]2c3cc4c(cc3C[C@H]3COC(=O)[C@H]32)OCO4)cc(OC)c1OC [ISOPICRODEOXYPODOPHYLLOTOXIN]
Activity [1]: <0.01 µg/mL

C/C1=C\[C@H](C)C[C@H](C)OC(=O)C[C@H](c2ccc(O)cc2)NC(=O)[C@@H](Cc2c(Br)[nH]c3ccccc23)N(C)C(=O)[C@H](C)NC(=O)[C@@H](C)C1 [JASPAMIDE]
Activity [1]: 0.008 µg/mL

CCC1NC(=O)[C@H](C)NC(=O)C(C)(C)C(=O)[C@H](C)NC(=O)[C@H](Cc2ccc(OC)cc2)N(C)C(=O)[C@H](C(C)C)N(C)C(=O)CNC(=O)[C@H]([C@@H](C)CC)N(C)C(=O)CNC(=O)[C@H]([C@@H](C)CC)OC(=O)C1C (stereo partly specified) [MAJUSCULAMIDE C] (cyclo(A[X1]G[NMeI]G[NMeV][NMeY](Me)[X2]))
Activity [2]: 0.51 µg/mL
Activity [13]: 0.058 µg/mL
Activity [3]: 0.0032 µg/mL
Activity [4]: 0.0013 µg/mL
Activity [14]: 0.0068 µg/mL
Activity [6]: 0.13 µg/mL

Cl.O[C@]12C=C(c3nccc4c3[nH]c3ccccc34)[C@@H]3CCN(CCCC/C=C\CC1)C[C@@]31C[C@@H]3/C=C\CCCCN3[C@H]12 [MANZAMINE A HCL]
Activity [15]: 99%
MIC ([15]; Mycobacterium tuberculosis): 6.25 µg/mL
IC50 [16]: 1.7 µg/mL
Activity [1]: 0.0067 µg/mL
Activity [3]: 0.36 µg/mL
Activity [4]: 0.37 µg/mL
Activity [5]: 0.35 µg/mL
Activity [11]: 0.41 µg/mL
Activity [12]: 0.42 µg/mL
Activity [7]: 0.6 µg/mL

C\C(=C/C=C/C(C)=C1/C(=O)C[C@H]2[C@@]3(C)CCC(=O)C(C)(C)[C@@H]3CC[C@]12C)c1ccc(C)c(=O)o1 [STELLETIN A]
Activity [1]: 0.012 µg/mL
Activity [5]: 0.078 µg/mL
Activity [11]: 0.752 µg/mL

CC(/C=C/C=C(\C)c1ccc(C)c(=O)o1)=C1/C(=O)C[C@H]2[C@@]3(C)CCC(=O)C(C)(C)[C@@H]3CC[C@]12C [STELLETTIN B]
Activity [1]: 0.037 µg/mL

N#Cc1cn([C@@H]2O[C@H](CO)[C@@H](O)[C@H]2O)c2ncnc(N)c12 [TOYOCAMYCIN]
Activity [1]: 0.0023 µg/mL

C[C@H]1[C@H](C)CC[C@]2(C(=O)O)CC[C@]3(C)C(=CC[C@@H]4[C@@]5(C)CC[C@H](O)C(C)(C)[C@@H]5CC[C@]43C)[C@H]12 [URSOLIC ACID]
Activity [1]: >1 µg/mL
